# Reference: US10004701B2, “Methods and compositions for treating infection” (UNIVERSITY OF ROCHESTER, priority 2012, dated 2018)
# Counter-ions that a name gives are not always drawn. Like-named read-outs stand apart in the source and are kept apart here.
# How the values were obtained:
# Test in all cases: AK assay 384-well format, Prestwick library screening
# [1] = test system: K. pneumoniae; format: cell-based, Klebsiella pneumoniae; details: 50 μM final drug concentration; for fold induction at 50 µM: Klebsiella pneumoniae, 3 h
# [2] = test system: E. coli; format: cell-based, Escherichia coli; details: 50 μM final drug concentration; for fold induction at 50 µM: Escherichia coli, 3 h
# [3] = test system: E. faecium; format: cell-based, Enterococcus faecium; details: 50 μM final drug concentration; for fold induction at 50 µM: Enterococcus faecium, 3 h
# [4] = test system: P. aeruginosa; format: cell-based, Pseudomonas aeruginosa; details: 50 μM final drug concentration; for fold induction at 50 µM: Pseudomonas aeruginosa, 3 h
# [5] = test system: A. baumannii strain 98-37-09; format: cell-based, Acinetobacter baumannii; details: 50 μM final drug concentration; for fold induction at 50 µM: Acinetobacter baumannii, 983709, 3 h
# [6] = test system: S. aureus strain USA300-0114; format: cell-based, Staphylococcus aureus; details: 50 μM final drug concentration; for fold induction at 50 µM: Staphylococcus aureus, USA300, 3 h
# [7] = test system: E. cloacae; format: cell-based, Enterobacter cloacae; details: 50 μM final drug concentration; for fold induction at 50 µM: Enterobacter cloacae, 3 h
# [8] = planktonic, cutoff for positive 3-fold increase, read-out: AK-based Prestwick Library Screening Results, K. pneumoniae (fold increase in extracellular AK activity)
# [9] = planktonic, cutoff for positive 3-fold increase, read-out: AK-based Prestwick Library Screening Results, E. coli (fold increase in extracellular AK activity)
# [10] = planktonic, cutoff for positive 3-fold increase, read-out: AK-based Prestwick Library Screening Results, E. faecium (fold increase in extracellular AK activity)
# [11] = planktonic, cutoff for positive 3-fold increase, read-out: AK-based Prestwick Library Screening Results, P. aeruginosa (fold increase in extracellular AK activity)
# [12] = planktonic, cutoff for positive 3-fold increase, read-out: AK-based Prestwick Library Screening Results, A. baumannii (fold increase in extracellular AK activity)
# [13] = planktonic, cutoff for positive 3-fold increase, read-out: AK-based Prestwick Library Screening Results, S. aureus (fold increase in extracellular AK activity)
# [14] = planktonic, cutoff for positive 3-fold increase, read-out: AK-based Prestwick Library Screening Results, E. cloacae (fold increase in extracellular AK activity)
# [15] = planktonic K. pneumoniae, 384-well, cutoff for positive-scoring molecules 3-fold increase, read-out: AK-based Prestwick Library Screening Results: K. pneumoniae (increase in extracellular AK activity)
# [16] = planktonic E. coli, 384-well, cutoff for positive-scoring molecules 3-fold increase, read-out: AK-based Prestwick Library Screening Results: E. coli (increase in extracellular AK activity)
# [17] = planktonic E. faecium, 384-well, cutoff for positive-scoring molecules 3-fold increase, read-out: AK-based Prestwick Library Screening Results: E. faecium (increase in extracellular AK activity)
# [18] = planktonic P. aeruginosa, 384-well, cutoff for positive-scoring molecules 3-fold increase, read-out: AK-based Prestwick Library Screening Results: P. aeruginosa (increase in extracellular AK activity)
# [19] = planktonic A. baumannii, 384-well, cutoff for positive-scoring molecules 3-fold increase, read-out: AK-based Prestwick Library Screening Results: A. baumannii (increase in extracellular AK activity)
# [20] = planktonic S. aureus, 384-well, cutoff for positive-scoring molecules 3-fold increase, read-out: AK-based Prestwick Library Screening Results: S. aureus (increase in extracellular AK activity)
# [21] = planktonic E. cloacae, 384-well, cutoff for positive-scoring molecules 3-fold increase, read-out: AK-based Prestwick Library Screening Results: E. cloacae (increase in extracellular AK activity)
# [22] = planktonic, cutoff for positive-scoring molecules 3-fold increase
# [23] = 384-well format, cutoff for positive-scoring molecules 3-fold increase
# [24] = cutoff for positive-scoring molecules 3-fold increase
compound,measurement,setting,value
c1ccc(C2CN3CCSC3=N2)cc1 (centres unmarked) [Tetramisole hydrochloride],fold induction at 50 µM,[1]; [8],1.1
same,fold induction at 50 µM,[2]; [9],1.3
same,fold induction at 50 µM,[3]; [10],1
same,fold induction at 50 µM,[4]; [11],1.2
same,fold induction at 50 µM,[5]; [12],1.4
same,fold induction at 50 µM,[6]; [13],1.1
same,fold induction at 50 µM,[7]; [14],1.4
O=c1n(CCCN2CCN(c3cccc(Cl)c3)CC2)nc2ccccn12 [Trazodone hydrochloride],fold induction at 50 µM,[1]; [15],1
same,fold induction at 50 µM,[2]; [16],0.9
same,fold induction at 50 µM,[3]; [17],1
same,fold induction at 50 µM,[4]; [18],1.2
same,fold induction at 50 µM,[5]; [19],1
same,fold induction at 50 µM,[6]; [20],0.9
same,fold induction at 50 µM,[7]; [21],1.3
C[C@]12C[C@H]3S[C@H]3C[C@@H]1CC[C@@H]1[C@@H]2CC[C@]2(C)[C@@H](O)CC[C@@H]12 [Epitiostanol],fold induction at 50 µM,"[1]; planktonic K. pneumoniae, […], read-out: AK-based Prestwick library screening result, K. pneumoniae (fold increase in extracellular AK activity)",0.9
same,fold induction at 50 µM,"[2]; planktonic E. coli, […], read-out: AK-based Prestwick library screening result, E. coli (fold increase in extracellular AK activity)",1.2
same,fold induction at 50 µM,"[3]; planktonic E. faecium, […], read-out: AK-based Prestwick library screening result, E. faecium (fold increase in extracellular AK activity)",1
same,fold induction at 50 µM,"[4]; planktonic P. aeruginosa, […], read-out: AK-based Prestwick library screening result, P. aeruginosa (fold increase in extracellular AK activity)",1.1
same,fold induction at 50 µM,"[5]; planktonic A. baumannii, […], read-out: AK-based Prestwick library screening result, A. baumannii (fold increase in extracellular AK activity)",1.1
same,fold induction at 50 µM,"[6]; planktonic S. aureus, […], read-out: AK-based Prestwick library screening result, S. aureus (fold increase in extracellular AK activity)",0.9
same,fold induction at 50 µM,"[7]; planktonic E. cloacae, […], read-out: AK-based Prestwick library screening result, E. cloacae (fold increase in extracellular AK activity)",1.3
Nc1nc(=O)c2c([nH]1)NCC(CNc1ccc(C(=O)N[C@@H](CCC(=O)[O-])C(=O)[O-])cc1)N2C=O.[Ca+2] (some centres unmarked) [Folinic acid calcium salt],"AK-based Prestwick Library Screening Results, K. pneumoniae (fold increase in extracellular AK activity)",[1]; [22],0.6
same,"AK-based Prestwick Library Screening Results, E. coli (fold increase in extracellular AK activity)",[2]; [22],0.7
same,"AK-based Prestwick Library Screening Results, E. faecium (fold increase in extracellular AK activity)",[3]; [22],1.0
same,"AK-based Prestwick Library Screening Results, P. aeruginosa (fold increase in extracellular AK activity)",[4]; [22],0.6
same,"AK-based Prestwick Library Screening Results, A. baumannii (fold increase in extracellular AK activity)",[5]; [22],0.7
same,"AK-based Prestwick Library Screening Results, S. aureus (fold increase in extracellular AK activity)",[6]; [22],0.7
same,"AK-based Prestwick Library Screening Results, E. cloacae (fold increase in extracellular AK activity)",[7]; [22],0.7
Cotinine (−),"AK-based Prestwick Library Screening Results, K. pneumoniae (increase in extracellular AK activity)",[1]; [23],0.4
same,"AK-based Prestwick Library Screening Results, E. coli (increase in extracellular AK activity)","[2]; 384-well format, […]",0.5
same,"AK-based Prestwick Library Screening Results, E. faecium (increase in extracellular AK activity)",[3]; [23],0.8
same,"AK-based Prestwick Library Screening Results, P. aeruginosa (increase in extracellular AK activity)",[4]; [23],0.3
same,"AK-based Prestwick Library Screening Results, A. baumannii (increase in extracellular AK activity)",[5]; [23],0.3
same,"AK-based Prestwick Library Screening Results, S. aureus (increase in extracellular AK activity)",[6]; [23],0.4
same,"AK-based Prestwick Library Screening Results, E. cloacae (increase in extracellular AK activity)",[7]; [23],0.3
CC(C)c1c(CN(C)C(C)Cc2ccccc2)n(C)n(-c2ccccc2)c1=O (centres unmarked) [Famprofazone],fold induction at 50 µM,"[1]; […], read-out: AK-based Prestwick Library Screening Results, K. pneumoniae (fold increase in extracellular AK activity)",1.1
same,fold induction at 50 µM,"[2]; […], read-out: AK-based Prestwick Library Screening Results, E. coli (fold increase in extracellular AK activity)",1.2
same,fold induction at 50 µM,"[3]; […], read-out: AK-based Prestwick Library Screening Results, E. faecium (fold increase in extracellular AK activity)",1
same,fold induction at 50 µM,"[4]; […], read-out: AK-based Prestwick Library Screening Results, P. aeruginosa (fold increase in extracellular AK activity)",1.2
same,fold induction at 50 µM,"[5]; […], read-out: AK-based Prestwick Library Screening Results, A. baumannii (fold increase in extracellular AK activity)",1.1
same,fold induction at 50 µM,"[6]; […], read-out: AK-based Prestwick Library Screening Results, S. aureus (fold increase in extracellular AK activity)",0.8
same,fold induction at 50 µM,"[7]; […], read-out: AK-based Prestwick Library Screening Results, E. cloacae (fold increase in extracellular AK activity)",1.5
COc1ccc2cc([C@@H](C)C(=O)[O-])ccc2c1.[Na+] [(R)-Naproxen sodium salt],"AK-based Prestwick Library Screening Results, K. pneumoniae (fold increase in extracellular AK activity)",[1]; [24],1.0
same,"AK-based Prestwick Library Screening Results, E. coli (fold increase in extracellular AK activity)",[2]; [24],1.1
same,"AK-based Prestwick Library Screening Results, E. faecium (fold increase in extracellular AK activity)",[3]; [24],1.0
same,"AK-based Prestwick Library Screening Results, P. aeruginosa (fold increase in extracellular AK activity)",[4]; [24],1.0
same,"AK-based Prestwick Library Screening Results, A. baumannii (fold increase in extracellular AK activity)",[5]; [24],1.1
same,"AK-based Prestwick Library Screening Results, S. aureus (fold increase in extracellular AK activity)",[6]; [24],1.0
same,"AK-based Prestwick Library Screening Results, E. cloacae (fold increase in extracellular AK activity)",[7]; [24],1.7
OCCOCCN1CCN(C(c2ccccc2)c2ccc(Cl)cc2)CC1 (centres unmarked) [Hydroxyzine dihydrochloride],fold induction at 50 µM,[1]; [15],0.8
same,fold induction at 50 µM,[2]; [16],1
same,fold induction at 50 µM,[3]; [17],0.9
same,fold induction at 50 µM,[4]; [18],1
same,fold induction at 50 µM,[5]; [19],1
same,fold induction at 50 µM,[6]; [20],0.9
same,fold induction at 50 µM,[7]; [21],1.6
Cc1c2ccncc2c(C)c2c1[nH]c1ccccc12 [Ellipticine],fold induction at 50 µM,[1]; [8],1
same,fold induction at 50 µM,[2]; [9],1.3
same,fold induction at 50 µM,[3]; [10],1.3
same,fold induction at 50 µM,[4]; [11],1.2
same,fold induction at 50 µM,[5]; [12],4.1
same,fold induction at 50 µM,[6]; [13],0.8
same,fold induction at 50 µM,[7]; [14],1.8
Cc1c(-c2ccccc2)oc2c(C(=O)OCCN3CCCCC3)cccc2c1=O [Flavoxate hydrochloride],fold induction at 50 µM,"[1]; 384-well format, cutoff for positive-scoring molecules 3-fold increase, read-out: AK-based Prestwick Library Screening Results, K. pneumoniae (increase in extracellular AK activity)",0.6
same,fold induction at 50 µM,"[2]; 384-well format, cutoff for positive-scoring molecules 3-fold increase, read-out: AK-based Prestwick Library Screening Results, E. coli (increase in extracellular AK activity)",0.5
same,fold induction at 50 µM,"[3]; 384-well format, cutoff for positive-scoring molecules 3-fold increase, read-out: AK-based Prestwick Library Screening Results, E. faecium (increase in extracellular AK activity)",0.9
same,fold induction at 50 µM,"[4]; 384-well format, cutoff for positive-scoring molecules 3-fold increase, read-out: AK-based Prestwick Library Screening Results, P. aeruginosa (increase in extracellular AK activity)",0.6
same,fold induction at 50 µM,"[5]; 384-well format, cutoff for positive-scoring molecules 3-fold increase, read-out: AK-based Prestwick Library Screening Results, A. baumannii (increase in extracellular AK activity)",0.5
same,fold induction at 50 µM,"[6]; 384-well format, cutoff for positive-scoring molecules 3-fold increase, read-out: AK-based Prestwick Library Screening Results, S. aureus (increase in extracellular AK activity)",0.6
same,fold induction at 50 µM,"[7]; 384-well format, cutoff for positive-scoring molecules 3-fold increase, read-out: AK-based Prestwick Library Screening Results, E. cloacae (increase in extracellular AK activity)",0.6
CC(C)[N+]1(C)[C@@H]2CC[C@H]1CC(OC(=O)C(CO)c1ccccc1)C2.[Br-] (some centres unmarked) [Ipratropium bromide],"AK-based Prestwick Library Screening Results, K. pneumoniae (increase in extracellular AK activity)","[1]; planktonic K. pneumoniae, […]",0.6
same,"AK-based Prestwick Library Screening Results, E. coli (increase in extracellular AK activity)","[2]; planktonic E. coli, […]",0.6
same,"AK-based Prestwick Library Screening Results, E. faecium (increase in extracellular AK activity)","[3]; planktonic E. faecium, […]",0.9
same,"AK-based Prestwick Library Screening Results, P. aeruginosa (increase in extracellular AK activity)","[4]; planktonic P. aeruginosa, […]",0.8
same,"AK-based Prestwick Library Screening Results, A. baumannii (increase in extracellular AK activity)","[5]; planktonic A. baumannii, […]",0.6
same,"AK-based Prestwick Library Screening Results, S. aureus (increase in extracellular AK activity)","[6]; planktonic S. aureus, […]",0.7
same,"AK-based Prestwick Library Screening Results, E. cloacae (increase in extracellular AK activity)","[7]; planktonic E. cloacae, […]",0.8
